According to PMC10049354, “Anti-Inflammatory Effects and Photo- and Neuro-Protective Properties of BIO203, a New Amide Conjugate of Norbixin, in Development for the Treatment of Age-Related Macular Degeneration (AMD)” (International Journal of Molecular Sciences, 2023):
Read-outs that look alike come from different tables or passages of the source.

Key:
[1] = test system: VEGF; assay: VEGF mRNA expression induced by A2E (quantitative RT-PCR); assay type: cell-based, pig; conditions: BIO203 20 mM (so in the source); A2E 20 μM; porcine RPE cells; p < 0.001
Protocol: (§1) RPE cells were obtained from pig eyes, as previously described. RPE cells were seeded on a 96-well plate at a density of 1.5 × 10^5 cells/cm^2 in DMEM 2% FCS. BIO201, BIO203, or its pure enantiomers were added in increasing concentrations to the culture medium 48 h before illumination. A2E was added to the medium at a final concentration of 30 μM, and 19 h later, blue-light illumination was performed for 50 min using a 96 blue-led device (Durand, St Clair de la Tour, France) emitting at 470 nm (1440 mcd, 8.6 mA). Just before illumination, the culture medium was replaced by a modified DMEM without any photosensitizer and with 2% FCS. Twenty-four hours after blue-light irradiation, all cell nuclei were stained with Hoechst 33342, and nuclei of dead cells with ethidium homodimer 2, fixed with paraformaldehyde (4% in PBS, 10 min) and 9 pictures per well were captured using a fluorescence microscope (Nikon TiE) equipped with a CoolSNAP HQ2 camera and driven by Metamorph Premier On-Line program. Quantification of live cells was performed using Metamorph Premier Off-Line and a homemade program by subtraction of dead cells from all cells. For cytokines mRNA analysis, RPE cells were seeded in 24-well plates and left untreated or treated with A2E or BIO203 alone or A2E plus BIO203. […]

[2] = test system: Abca4−/− Rdh8−/− mice; assay: A2E quantification in eyes of Abca4−/− Rdh8−/− mice (HPLC-MS/MS); assay type: in vivo, mouse; conditions: 6 months
Excerpt: To test the preventive/curative action of oral administration of BIO203 against retinal neurodegeneration, a total of 27 Pigmented Abca4^−/− Rdh8^−/− mice carrying the Rpe65-Leu450 mutation and the rd8 mutation in the Crb1 gene from Case Western Reserve University of eleven to twelve months of age were used. Three groups of 9 males received control chow (Teklad Custom Research Diet 2016© pellets) or chow containing LD-BIO203 or HD-BIO203 orally for 6 months. After 6 months of complementation, ERG was measured in both eyes. In the control group, two mice died during the period of complementation and one mouse during ERG measurement. In the HD-BIO203 group, one mouse died before the end of complementation, and 3 mice died just after anesthesia. All the mice that received LD-BIO203 were alive until the end of the complementation. One of them died during the photopic ERG measurement. Blood was collected by submandibular puncture in all mice before being euthanized. In each group, half of the eyes were removed for A2E and BIO203 measurements, and half of the eyes were used for histological analyses and photoreceptor layer quantification.
A2E quantification in eyes was performed using the HPLC-MS/MS method, which has been described previously.

[3] = test system: IL-6; assay: IL-6 mRNA expression induced by A2E (quantitative RT-PCR); assay type: cell-based, pig
Protocol: as §1

[4] = test system: NF-κB; assay: NF-κB transactivation assay induced by A2E; assay type: cell-based, pig; conditions: compound 20 μM; A2E 20 μM; p < 0.05
Protocol: Transactivation assays were performed as previously described. Briefly, RPE cells were plated in DMEM 2% FCS at a density of 6 × 10^4 cells/cm^2. The next day transfections using the Cignal Reporter Assay Kits for PPAR, RXR, AP-1, and NF-κB were performed with Lipofectamine and Plus Reagent in serum-free medium. Three hours after the transfection, A2E and/or BIO203, both at 20 μM, were added to the culture medium for 24 h. Luciferase activity was measured using the Dual-Luciferase Reporter Assay System and with a luminometer (Infinite M1000 from Tecan, Mannedorf, Switzerland). At least 3 independent transfections were performed in triplicate for each condition.

[5] = test system: IL-8; design: method as in PMID 34544906; conditions: norbixin at 20 mM (so in the source); cited from earlier work
[6] = test system: NF-κB; design: method as in PMID 34544906; conditions: cited from earlier work
[7] = test system: albino rats exposed to blue-light-induced photoreceptor degeneration; design: method as in PMID 27992460; conditions: IP; cited from earlier work

Compound | change of VEGF mRNA expression induced by A2E [1] [%] | change of A2E concentration in the retinas compared with control pellets ([2]; HD pellets, not significant, p = 0.407) [%] | amount of ocular A2E compared with control pellets ([2]; LD pellets) | change of IL-6 mRNA expression induced by A2E ([3]; BIO203 20 mM (so in the source), A2E 20 μM, porcine RPE cells, p < 0.001) [%] | effect on IL-6 expression on its own (without A2E) ([3]; BIO203 alone, not statistically significant) | change of NF-κB transactivation induced by A2E [4] [%] | effect on IL-8 mRNA expression [5] | change of NF-κB transactivation induced by A2E [6] [%] | lowest dose giving the maximal retinal neuroprotection and optimal preservation of visual functions [7] [mg/kg]
COC1CCCN(C(=O)/C=C/C(C)=C/C=C/C(C)=C/C=C/C=C(C)/C=C/C=C(C)\C=C\C(=O)O)C1 (stereo not drawn) [BIO203] | −84.8 | −21.7 | did not differ significantly | −104.8 | slightly inhibited | −69.4 | – | – | –
CC(=C/C=C/C(C)=C/C=C/C=C(C)/C=C/C=C(C)/C=C/C(=O)O)/C=C/C(=O)O [norbixin, 9′-cis-norbixin] | – | – | – | – | – | – | significantly reduced | −73 | 50
